The values that follow are results of earlier work, collected in patent publication US8007820B2, “Wide spectrum insecticide and miticide composition” (W. Neudorff GmbH KG, priority 2005, dated 2011).

The conditions of this data set: as formulated material.

As for Spinosad, the shelf life entry was “about three”.
